The results in this text go back to patent US20100160335A1, “PYRIDAZINONE DERIVATIVE AND PDE INHIBITOR CONTAINING THE SAME AS ACTIVE INGREDIENT” (KYORIN PHARMACEUTICAL CO., LTD., priority 2007, published 2010).

The test system of assay [1] is LPS acute inflammation model in rats. Description: LPS acute inflammation model in rats (total leukocytes in BALF). The class given is in vivo. Conditions: Rattus norvegicus, Leukocyte, po, 3 h, BALF 3 hours after LPS, read-out: Inhibition rate (total number of leukocytes in BALF). The procedure: 1 mg/kg of the compound was orally administered to rat one hour before inhalation of a lipopolysaccharide from E. coli serotype 055:B5 (LPS), and the rat was made to inhale 50 mL of the LPS solution nebulized using a nebulizer for 30 minutes. Then, 3 hours after the LPS inhalation, the rat was euthanized with 20% urethane (5 ml/rat, i.p.). 5 ml of physiological saline for bronchoalveolar lavage was injected into the bronchial tubes and alveoli through the airway, and the bronchial tubes and alveoli were washed three times using a 5 mL syringe. This operation was repeated twice, and the solution was collected as bronchoalveolar lavage fluid (BALF). The collected BALF was centrifuged at 1200 rpm and 4° C. for 10 minutes (Hirtachi; himac CR 5 DL). The pellet was re-suspended in 10 mL of a 0.1% bovine serum albumin-physiological saline, and an equivalent amount of Turk's solution was added thereto to stain leukocytes. The total number of leukocytes was counted under a microscope to calculate the inhibition rate. Further, the indications were as follows: inhibition rate≧90% (++) and 90%>inhibition rate≧50% (+). [ ] means the results of the drug administration after fasting overnight.

Assay [2] has as its target T1, PDE3A catalytic domain (PDE3Acat) (Homo sapiens, UniProt Q14432).
T1 construct: made in house; host or cells: Sf9 insect cells (baculovirus, Bac-to-Bac / Gateway)
Put plainly: Phosphodiesterase inhibitory activity, PDE3 ([3H]cAMP, recombinant enzyme). Type of assay: biochemical. The settings on record: 30° C., 20 minutes, read-out: IC50(μmol/L) PDE3.

Assay [3] has as its system histamine-induced bronchoconstriction in guinea pigs. Description: Histamine-induced bronchoconstriction reaction in guinea pigs. Conditions: Cavia porcellus, iv, 0.5 min, guinea pig, measured 30 seconds after administration, read-out: Inhibition rate (histamine-induced bronchoconstriction); for inhibition in vivo at 0.3 mg/kg: compound 0.3 mg/kg, i.v. Type of assay: in vivo.

In a further assay the target is T2, PDE4Bcat (Homo sapiens, UniProt Q07343).
T2 construct: made in house; host or cells: Sf9 insect cells (baculovirus, Bac-to-Bac / Gateway)
Description: Phosphodiesterase inhibitory activity, PDE4 ([3H]cAMP, recombinant enzyme). The settings on record: 30° C., 20 minutes, read-out: IC50(μmol/L) PDE4. Type of assay: biochemical.

The mark [4] stands for this setting: 1 mg/kg orally one hour before LPS inhalation.

Read-outs that look alike come from different tables or passages of the source.

T1 sequence (Q14432 674-1093 limits assumed): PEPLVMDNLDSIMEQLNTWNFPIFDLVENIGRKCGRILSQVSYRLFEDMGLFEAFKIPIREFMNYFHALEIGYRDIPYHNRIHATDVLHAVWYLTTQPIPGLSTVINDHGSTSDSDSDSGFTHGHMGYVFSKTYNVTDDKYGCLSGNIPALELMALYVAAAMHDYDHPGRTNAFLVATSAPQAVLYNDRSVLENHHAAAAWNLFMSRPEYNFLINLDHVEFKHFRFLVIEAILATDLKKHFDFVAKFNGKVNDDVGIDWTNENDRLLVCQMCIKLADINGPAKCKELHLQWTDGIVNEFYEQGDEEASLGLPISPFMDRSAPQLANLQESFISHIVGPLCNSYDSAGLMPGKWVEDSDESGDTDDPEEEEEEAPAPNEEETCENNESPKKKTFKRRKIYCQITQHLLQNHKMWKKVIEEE
T2 sequence (Q07343 330-659 limits assumed): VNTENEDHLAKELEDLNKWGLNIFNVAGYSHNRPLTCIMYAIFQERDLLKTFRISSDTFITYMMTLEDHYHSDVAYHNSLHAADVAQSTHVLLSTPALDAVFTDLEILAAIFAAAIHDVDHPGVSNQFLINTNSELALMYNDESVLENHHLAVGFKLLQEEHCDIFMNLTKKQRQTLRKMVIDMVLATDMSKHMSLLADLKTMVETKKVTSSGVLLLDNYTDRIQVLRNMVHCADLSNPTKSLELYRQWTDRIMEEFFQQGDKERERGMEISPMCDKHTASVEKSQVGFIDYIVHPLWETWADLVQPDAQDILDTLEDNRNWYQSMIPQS

Regarding `COc1ccc(C2=NN(CCCCOc3ccc(C4=NNC(=O)CC4C)cc3)C(=O)CC2C)c2[nH]c(C(F)(F)F)nc12` (stereo not drawn) [Example 314, 6-(4-Methoxy-2-trifluoromethyl-1H-benzimidazol-7-yl)-5-methyl-2-[4-[4-(4-methyl-6-oxo-1,4,5,6-tetrahydropyridazin-3-yl)phenoxy]butyl]-4,5-dihydro-2H-pyridazin-3-one], the inhibition in vivo at 1 mg/kg in assay [1] (setting [4]) is 50 to 90%. Besides, the IC50 (in assay [2]; at PDE4Bcat) was less than 0.1 µmol/L throughout. Moreover, the inhibition in vivo at 0.3 mg/kg in assay [3] lay within 80 to 90%.
Take `CCc1ccc2c(-c3ccc(=O)n(CCCCOc4ccc(C5=NNC(=O)CC5C)c(F)c4F)n3)ccc(OC)c2n1` (stereo not drawn) [Example 289, 6-(2-Ethyl-8-methoxyquinolin-5-yl)-2-[4-[2,3-difluoro-4-(4-methyl-6-oxo-1,4,5,6-tetrahydropyridazin-3-yl)phenoxy]butyl]-2H-pyridazin-3-one]: the inhibition in vivo at 1 mg/kg in assay [1] (setting [4]) lay in the range of 50 to 90%. The IC50 (in assay [2]; on PDE4Bcat) was less than 0.1 µmol/L throughout. Besides, in assay [3], the inhibition in vivo at 0.3 mg/kg was no less than 90%.
Turning to `CCc1ccc2c(C3=NN(CCCCOc4ccc(C5=NNC(=O)CC5)c(F)c4F)C(=O)CC3C)ccc(OC)c2n1` (stereo not drawn) [Example 299, 6-(2-Ethyl-8-methoxyquinolin-5-yl)-5-methyl-2-[4-[2,3-difluoro-4-(6-oxo-1,4,5,6-tetrahydropyridazin-3-yl)phenoxy]butyl]-4,5-dihydro-2H-pyridazin-3-one], the inhibition in vivo at 1 mg/kg in assay [1] (1 mg/kg orally after fasting overnight (values in [ ]), one hour before LPS inhalation) lay in the range of 50 to 90%. For the same molecule, the IC50 (in assay [2]; at PDE4Bcat) was less than 0.1 µmol/L throughout. Besides, the inhibition in vivo at 0.1 mg/kg in assay [3] (compound 0.1 mg/kg, i.v. (values in [ ])) was no less than 90%.
